Source: patent publication US10288629B1, “Method of assessing growth hormone deficiency in humans by a macimorelin containing composition” (AEterna Zentaris, Inc., priority 2017, dated 2019)

How the values were obtained:
GH level [1] = assay: agreement of the Macimorelin GHST with the ITT for diagnosis of AGHD; type: in vivo, human; settings: cut-off 2.8 ng/mL macimorelin, 5.1 ng/mL ITT, N = 139
Description: The study protocol allowed for a 5 minutes time window for each of said time points, meaning that a blood sample collected for example within 25 to 35 min after GH provocation agent administration was […] collected for the 30 min time point.

GH level [2] = assay: repeatability of the macimorelin GHST; type: in vivo, human; settings: below or above cut-off point
Excerpt: To assess the repeatability of the macimorelin GHST, 33 subjects with a valid first macimorelin test (core study) underwent a second macimorelin test (repeatability study extension).

[3] = design: species or system human; settings: in vivo
peak GH concentrations = assay: peak GH response in the macimorelin GHST and ITT; type: in vivo, human; settings: all AGHD likelihood groups A-D; N=139; FIG. 5
Description: Blood samples were collected before and 30, 45, 60, and 90 minutes after administration of macimorelin and before and 15, 30, 45, 60, 90 and 120 minutes after administration of insulin to the efficacy data set subjects and GH levels were determined for all samples.

human GHS receptor = target: T1, human GHS receptor (Homo sapiens, UniProt Q92847); settings: membrane preparations from human hypothalamus and pituitary gland; compared with ghrelin; cited from earlier work
T1 construct: membrane preparations containing the GHS-receptor derived from human hypothalamus and pituitary gland; from tissue; host or cells: human hypothalamus and pituitary gland membranes
T1 sequence (Q92847 whole entry): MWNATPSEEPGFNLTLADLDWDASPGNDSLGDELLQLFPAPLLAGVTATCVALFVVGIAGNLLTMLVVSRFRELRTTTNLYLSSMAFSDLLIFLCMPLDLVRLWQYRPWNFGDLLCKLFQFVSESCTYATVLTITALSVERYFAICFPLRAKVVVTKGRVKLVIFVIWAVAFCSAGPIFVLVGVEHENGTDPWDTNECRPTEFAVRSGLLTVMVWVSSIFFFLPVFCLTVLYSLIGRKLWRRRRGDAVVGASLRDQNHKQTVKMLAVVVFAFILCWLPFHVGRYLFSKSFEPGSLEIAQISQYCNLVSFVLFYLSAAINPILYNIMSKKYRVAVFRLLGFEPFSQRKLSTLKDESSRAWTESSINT

[4] = macimorelin sample: peak of 0-90 min
[5] = macimorelin sample: peak of 45 & 60 min
[6] = macimorelin sample: peak of 60 & 90 min

Question: With CC(C)(N)C(=O)N[C@H](Cc1c[nH]c2ccccc12)C(=O)N[C@H](Cc1c[nH]c2ccccc12)NC=O [Macimorelin, macimorelin] as the molecule, how does the Negative % agreement (GH level [1]; macimorelin sample: 30 min) read?
Answer: 73.85%

Question: What about the Positive % agreement (GH level [1]; macimorelin sample: 30 min) of the same molecule?
Answer: 82.43%

Question: What about the Total % agreement (GH level [1]; macimorelin sample: 30 min) of the same molecule?
Answer: 78.42%

Question: And the Negative % agreement (GH level [1]; macimorelin sample: 45 min)?
Answer: 86.15%

Question: And the Positive % agreement (GH level [1]; macimorelin sample: 45 min)?
Answer: 78.38%

Question: What about the Total % agreement (GH level [1]; macimorelin sample: 45 min) of the same molecule?
Answer: 82.01%

Question: What about the Negative % agreement (GH level [1]; macimorelin sample: 60 min) of the same molecule?
Answer: 95.31%

Question: What about the Positive % agreement (GH level [1]; macimorelin sample: 60 min) of the same molecule?
Answer: 81.08%

Question: And the Total % agreement (GH level [1]; macimorelin sample: 60 min)?
Answer: 87.68%

Question: And the Negative % agreement (GH level [1]; macimorelin sample: 90 min)?
Answer: 84.62%

Question: What about the Positive % agreement (GH level [1]; macimorelin sample: 90 min) of the same molecule?
Answer: 86.49%

Question: And the Total % agreement (GH level [1]; macimorelin sample: 90 min)?
Answer: 85.61%

Question: And the Negative % agreement (GH level [1]; [4])?
Answer: 95.38%

Question: And the Positive % agreement (GH level [1]; [4])?
Answer: 74.32%

Question: What about the Total % agreement (GH level [1]; [4]) of the same molecule?
Answer: 84.17%

Question: What about the Negative % agreement (GH level [1]; [5]) of the same molecule?
Answer: 95.38%

Question: What about the Positive % agreement (GH level [1]; [5]) of the same molecule?
Answer: 75.68%

Question: And the Total % agreement (GH level [1]; [5])?
Answer: 84.89%

Question: What about the Negative % agreement (GH level [1]; [6]) of the same molecule?
Answer: 95.38%

Question: What about the Positive % agreement (GH level [1]; [6]) of the same molecule?
Answer: 78.38%

Question: And the Total % agreement (GH level [1]; [6])?
Answer: 86.33%

Question: What about the Negative % agreement (GH level [1]; macimorelin sample: pre-dose) of the same molecule?
Answer: 13.85%

Question: And the Positive % agreement (GH level [1]; macimorelin sample: pre-dose)?
Answer: 98.65%

Question: And the Total % agreement (GH level [1]; macimorelin sample: pre-dose)?
Answer: 58.99%

Question: What about the “result of second macimorelin test matching result of first test” value (GH level [2]; 33 subjects) of the same molecule?
Answer: 94%

Question: And the “subjects with reproducible test outcome (number)” value (GH level [2]; out of 33 subjects)?
Answer: 31

Question: What about the diarrhea ([3]; human) of the same molecule?
Answer: 1.9%

Question: What about the dizziness ([3]; human) of the same molecule?
Answer: 3.9%

Question: And the dysgeusia ([3]; human)?
Answer: 4.5%

Question: What about the fatigue ([3]; human) of the same molecule?
Answer: 3.9%

Question: And the feeling hot ([3]; human)?
Answer: 1.3%

Question: What about the headache ([3]; human) of the same molecule?
Answer: 3.9%

Question: What about the hunger ([3]; human) of the same molecule?
Answer: 3.2%

Question: What about the hyperhidrosis ([3]; human) of the same molecule?
Answer: 1.3%

Question: And the nasopharyngitis ([3]; human)?
Answer: 1.3%

Question: What about the nausea ([3]; human) of the same molecule?
Answer: 3.2%

Question: What about the sinus bradycardia ([3]; human) of the same molecule?
Answer: 1.3%

Question: And the “upper respiratory tract infection” value ([3]; human)?
Answer: 1.9%

Question: What about the “peak GH levels in the macimorelin GHST as compared to the ITT” value (peak GH concentrations) of the same molecule?
Answer: higher peak GH levels

Question: And the “binding potency to the human GHS receptor” value (human GHS receptor)?
Answer: comparable to that of its natural ligand, ghrelin

Question: Which “Any TEAE (likely or possible related), % of subjects” value [3] does the source give for “ITT: insulin tolerance test: intravenous administration of insulin to induce hypoglycaemia, which leads to GH release; comparator GHST [reference compound]” here?
Answer: 94.9%

Question: And the “Any TEAE (likely or possible related), Frequency (number of subjects)” value [3]?
Answer: 149

Question: And the “Any TEAE (likely or possible related), N AEs” value [3]?
Answer: 710

Question: What about the “Any TEAE, % of subjects” value [3] of the same molecule?
Answer: 96.2%

Question: And the “Any TEAE, N AEs (number of all AEs)” value [3]?
Answer: 761

Question: What about the “Any test emergent severe AE, % of subjects” value [3] of the same molecule?
Answer: 7%

Question: And the “severe TEAE asthenia, number of subjects” value [3]?
Answer: 4

Question: And the “severe TEAE hunger, number of subjects” value [3]?
Answer: 3

Question: And the “severe TEAE hyperhidrosis, number of subjects” value [3]?
Answer: 5

Question: And the “severe TEAE nervousness, number of subjects” value [3]?
Answer: 2

Question: What about the “severe TEAE somnolence, number of subjects” value [3] of the same molecule?
Answer: 5

Question: And the “severe TEAE tremor, % of subjects” value [3]?
Answer: 0.6%

Question: What about the “severe TEAE tremor, number of subjects” value [3] of the same molecule?
Answer: 1
